# Assay results: US20250122183A1 (Pfizer Inc., priority 2023, published 2025)
# How the values were obtained:
# Format in all cases: biochemical
# [1] = target: KAT7+JADE1+EAF6+ING5 4 protein complex (Homo sapiens (Human), UniProt O95251); assay: KAT7 JADE1 assay (SAMDI-MS acetylation of H3 1-21 peptide); conditions: Morrison equation fit; replicate number in parentheses; read-out: KAT7 JADE1 Ki (nM) (replicate number)
# KAT8 Full length enzyme = KAT8 Full length enzyme (Homo sapiens (Human), UniProt Q9H7Z6); assay: KAT8 assay (SAMDI-MS acetylation of H3 1-21 peptide); conditions: Morrison equation fit; replicate number in parentheses; read-out: KAT8 Ki (nM) (replicate number)
# Sequence of KAT8 Full length enzyme (Q9H7Z6 whole entry): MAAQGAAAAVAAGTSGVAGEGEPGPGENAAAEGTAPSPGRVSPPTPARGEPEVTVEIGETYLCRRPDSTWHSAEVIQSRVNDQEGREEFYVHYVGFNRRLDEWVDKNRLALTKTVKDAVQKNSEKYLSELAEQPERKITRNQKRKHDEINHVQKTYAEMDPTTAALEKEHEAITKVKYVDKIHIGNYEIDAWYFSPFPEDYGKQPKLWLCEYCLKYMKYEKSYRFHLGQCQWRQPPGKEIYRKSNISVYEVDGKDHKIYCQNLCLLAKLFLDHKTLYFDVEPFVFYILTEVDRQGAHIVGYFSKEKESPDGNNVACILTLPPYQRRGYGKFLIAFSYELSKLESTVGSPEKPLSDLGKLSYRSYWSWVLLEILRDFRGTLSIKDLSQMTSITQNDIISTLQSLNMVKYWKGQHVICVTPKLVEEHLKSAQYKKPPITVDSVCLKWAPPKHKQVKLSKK
# KAT5 Full length enzyme = KAT5 Full length enzyme (Homo sapiens (Human), UniProt Q92993); assay: KAT5 assay (SAMDI-MS acetylation of H4 1-21 peptide); conditions: Morrison equation fit; replicate number in parentheses; read-out: KAT5 Ki (nM) (replicate number)
# Sequence of KAT5 Full length enzyme (Q92993 whole entry): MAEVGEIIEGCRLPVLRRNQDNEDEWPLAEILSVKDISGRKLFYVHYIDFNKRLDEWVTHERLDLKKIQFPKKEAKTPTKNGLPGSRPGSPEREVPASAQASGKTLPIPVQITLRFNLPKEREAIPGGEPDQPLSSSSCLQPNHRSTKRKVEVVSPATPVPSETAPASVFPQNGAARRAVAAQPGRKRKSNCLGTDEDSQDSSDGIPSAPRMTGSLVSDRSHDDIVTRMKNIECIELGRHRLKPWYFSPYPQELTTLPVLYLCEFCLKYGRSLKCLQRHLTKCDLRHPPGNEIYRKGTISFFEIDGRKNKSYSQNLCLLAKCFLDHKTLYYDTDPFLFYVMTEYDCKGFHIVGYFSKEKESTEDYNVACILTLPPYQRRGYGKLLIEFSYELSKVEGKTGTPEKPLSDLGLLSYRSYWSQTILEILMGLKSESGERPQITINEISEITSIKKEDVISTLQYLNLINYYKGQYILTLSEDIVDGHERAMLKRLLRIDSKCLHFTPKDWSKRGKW
# [2] = target: KAT7+BRPF1+EAF6+ING5 4 protein complex (Homo sapiens (Human), UniProt O95251); assay: KAT7 BRPF1 assay (SAMDI-MS acetylation of H3 1-21 peptide); conditions: Morrison equation fit; replicate number in parentheses
# KAT6A Full length enzyme = KAT6A Full length enzyme (Homo sapiens (Human), UniProt Q92794); assay: KAT6A assay (SAMDI-MS acetylation of H3 1-21 peptide); conditions: Morrison equation fit; replicate number in parentheses; read-out: KAT6A Ki (nM) (replicate number)
# Sequence of KAT6A Full length enzyme (Q92794 other isoform, or with tags, fused parts or gaps): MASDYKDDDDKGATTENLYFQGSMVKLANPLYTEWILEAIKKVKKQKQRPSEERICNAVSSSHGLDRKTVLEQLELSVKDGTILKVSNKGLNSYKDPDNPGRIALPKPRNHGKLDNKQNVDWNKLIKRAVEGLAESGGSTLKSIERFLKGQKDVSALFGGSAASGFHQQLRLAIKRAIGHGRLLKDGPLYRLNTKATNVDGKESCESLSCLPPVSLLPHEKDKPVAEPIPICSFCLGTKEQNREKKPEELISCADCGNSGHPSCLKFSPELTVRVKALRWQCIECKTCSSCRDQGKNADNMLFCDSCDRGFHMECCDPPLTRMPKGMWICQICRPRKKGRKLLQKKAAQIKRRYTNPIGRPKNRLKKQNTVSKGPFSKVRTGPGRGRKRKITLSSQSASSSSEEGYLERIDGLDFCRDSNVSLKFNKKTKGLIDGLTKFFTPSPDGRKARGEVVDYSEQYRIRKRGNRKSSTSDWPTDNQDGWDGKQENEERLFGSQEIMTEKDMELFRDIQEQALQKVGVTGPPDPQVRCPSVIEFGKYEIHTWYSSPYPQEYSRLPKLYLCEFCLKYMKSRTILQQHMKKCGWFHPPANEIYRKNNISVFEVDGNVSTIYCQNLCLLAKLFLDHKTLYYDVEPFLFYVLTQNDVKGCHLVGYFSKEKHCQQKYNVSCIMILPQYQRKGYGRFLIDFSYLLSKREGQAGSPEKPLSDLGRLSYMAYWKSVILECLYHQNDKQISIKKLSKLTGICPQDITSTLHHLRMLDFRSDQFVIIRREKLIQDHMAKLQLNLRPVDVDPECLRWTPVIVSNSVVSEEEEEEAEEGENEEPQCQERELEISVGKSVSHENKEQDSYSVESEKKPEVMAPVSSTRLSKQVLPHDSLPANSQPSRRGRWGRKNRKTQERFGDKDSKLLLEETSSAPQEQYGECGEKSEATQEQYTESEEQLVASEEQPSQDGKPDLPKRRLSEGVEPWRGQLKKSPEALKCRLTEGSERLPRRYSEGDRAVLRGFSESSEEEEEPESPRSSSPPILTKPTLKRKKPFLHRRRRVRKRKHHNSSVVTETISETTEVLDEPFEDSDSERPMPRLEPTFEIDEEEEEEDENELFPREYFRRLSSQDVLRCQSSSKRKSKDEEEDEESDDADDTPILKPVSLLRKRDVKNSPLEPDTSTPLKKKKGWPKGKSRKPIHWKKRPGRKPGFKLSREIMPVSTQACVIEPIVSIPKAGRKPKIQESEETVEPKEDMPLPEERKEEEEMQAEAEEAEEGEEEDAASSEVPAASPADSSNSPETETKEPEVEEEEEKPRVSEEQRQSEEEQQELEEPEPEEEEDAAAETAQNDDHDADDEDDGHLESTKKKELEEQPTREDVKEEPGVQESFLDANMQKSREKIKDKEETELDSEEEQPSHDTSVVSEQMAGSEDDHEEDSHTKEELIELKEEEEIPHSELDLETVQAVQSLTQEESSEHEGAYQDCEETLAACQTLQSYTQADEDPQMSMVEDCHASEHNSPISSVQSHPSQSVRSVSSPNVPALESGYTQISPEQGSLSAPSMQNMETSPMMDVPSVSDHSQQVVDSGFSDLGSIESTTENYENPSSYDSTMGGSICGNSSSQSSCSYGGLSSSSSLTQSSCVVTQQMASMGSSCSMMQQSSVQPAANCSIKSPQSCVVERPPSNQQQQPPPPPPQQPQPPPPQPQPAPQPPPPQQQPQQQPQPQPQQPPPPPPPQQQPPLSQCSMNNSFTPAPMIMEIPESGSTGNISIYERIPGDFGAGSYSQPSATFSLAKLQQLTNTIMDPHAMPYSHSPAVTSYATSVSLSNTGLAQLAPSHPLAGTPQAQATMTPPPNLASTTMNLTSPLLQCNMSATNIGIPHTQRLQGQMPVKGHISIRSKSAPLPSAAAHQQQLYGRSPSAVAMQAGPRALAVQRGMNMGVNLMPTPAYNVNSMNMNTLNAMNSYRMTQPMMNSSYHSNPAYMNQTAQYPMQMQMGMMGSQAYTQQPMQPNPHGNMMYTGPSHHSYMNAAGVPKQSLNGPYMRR
SMILES,Ki [1] [nM],Ki (KAT8 Full length enzyme) [nM],Ki (KAT5 Full length enzyme) [nM],Ki [2] [nM],Ki (KAT6A Full length enzyme) [nM]
"COc1cc2c(NS(=O)(=O)c3c(OC)cccc3OC)noc2cc1Nc1cc(CC(C)C)n[nH]1 [Example 114, 2,6-dimethoxy-N-(5-methoxy-6-{[3-(2-methylpropyl)-1H-pyrazol-5-yl]amino}-1,2-benzoxazol-3-yl)benzene-1-sulfonamide]",22,3360,312,2.1,1.3
"COc1cc2c(NS(=O)(=O)c3c(OC)cc(CN4CC(F)(F)C4)cc3OC)noc2cc1Nc1cc(C2CC2)n[nH]1 [Example 203, N-{6-[(3-cyclopropyl-1H-pyrazol-5-yl)amino]-5-methoxy-1,2-benzoxazol-3-yl}-4-[(3,3-difluoroazetidin-1-yl)methyl]-2,6-dimethoxybenzene-1-sulfonamide]",4.3,1220,21.7,3,0.4
"CCc1cc(Nc2cc3onc(NS(=O)(=O)c4c(OC)cccc4OC)c3c(OC)c2F)[nH]n1 [Example 72, N-{6-[(3-ethyl-1H-pyrazol-5-yl)amino]-5-fluoro-4-methoxy-1,2-benzoxazol-3-yl}-2,6-dimethoxybenzene-1-sulfonamide]",21.5,> 6970,1010,1.1,4.6
"COc1cc2c(NS(=O)(=O)c3c(OC)cc(-c4ncc(N5CCN(C)CC5)cn4)cc3OC)noc2cc1Nc1cc(C2CC2)n[nH]1 [Example 226, N-{6-[(3-cyclopropyl-1 H-pyrazol-5-yl)amino]-5-methoxy-1,2-benzoxazol-3-yl}-2,6-dimethoxy-4-[5-(4-methylpiperazin-1-yl)pyrimidin-2-yl]benzene-1-sulfonamide]",3,572,11.6,2.4,0.3
"COc1cc2c(NS(=O)(=O)c3c(OC)cc(-c4ccn(C)n4)cc3OC)noc2cc1Nc1cc(C2CC2)n[nH]1 [Example 122, N-{6-[(3-cyclopropyl-1H-pyrazol-5-yl)amino]-5-methoxy-1,2-benzoxazol-3-yl}-2,6-dimethoxy-4-(1-methyl-1H-pyrazol-3-yl)benzene-1-sulfonamide]",3,395,45.3,1.2,0.3
"COc1cccc(OC)c1S(=O)(=O)Nc1noc2cc(Nc3cc(C4CC4)n[nH]3)c(F)c(OC)c12 [Example 71, N-{6-[(3-cyclopropyl-1H-pyrazol-5-yl)amino]-5-fluoro-4-methoxy-1,2-benzoxazol-3-yl}-2,6-dimethoxybenzene-1-sulfonamide]",20.9,4050,591,2.2,2.6
"COc1cc2c(NS(=O)(=O)c3c(OC)cc(-c4cscn4)cc3OC)noc2cc1Nc1cc(C2CC2)n[nH]1 [Example 121, N-{6-[(3-cyclopropyl-1H-pyrazol-5-yl)amino]-5-methoxy-1,2-benzoxazol-3-yl}-2,6-dimethoxy-4-(1,3-thiazol-4-yl)benzene-1-sulfonamide]",8.9,1120,106,2.1,0.7
"COc1cc2c(NS(=O)(=O)c3c(OC)cc(C4CCCN4C)cc3OC)noc2cc1Nc1cc(C2CC2)n[nH]1 (racemic) [Example 154, N-{6-[(3-cyclopropyl-1H-pyrazol-5-yl)amino]-5-methoxy-1,2-benzoxazol-3-yl}-2,6-dimethoxy-4-(1-methylpyrrolidin-2-yl)benzene-1-sulfonamide]",15.3,2140,88.3,7.8,2
"COc1cc2c(NS(=O)(=O)c3c(OC)cccc3OC3CC3)noc2cc1Nc1cc[nH]n1 [Example 34, 2-(cyclopropyloxy)-6-methoxy-N-{5-methoxy-6-[(1H-pyrazol-3-yl)amino]-1,2-benzoxazol-3-yl}benzene-1-sulfonamide]",51.8,1240,365,11.2,0.4
